The source of these data is patent publication EP0996436B1, “PHARMACEUTICAL FORMULATIONS CONTAINING POORLY SOLUBLE DRUG SUBSTANCES” (Sanofi-Aventis, priority 1997, dated 1998).

Some results are limits rather than exact numbers.

Data set [1] is described as follows: Solubility of SR48692 in polyethylene glycol/NaOH/water. It is filed as physicochemical. The conditions noted are these: PEG/NaOH/H2O; mole equivalents of NaOH per mole of drug 1.0 and less.
Data set [2] is described as follows: Dissolution rate of SR48692 capsules in deionized water pH 5.5 (USP Apparatus 2). The format is physicochemical. The note with it: at the end of the experiment of 60 minutes, water pH 5.5 (unbuffered), 37°C. As to the method:
The dissolution rate of 25 mg SR48692 solid dispersion in hard gelatin capsules were measured in deionized water (900 ml, pH=5.5, unbuffered) at 37°C. A USP dissolution system (Apparatus 2) with a paddle speed of 100 RPM was used. Dissolution rate was monitored by UV (Hewlett Packard 8452A) at 234 nm.
A screening dissolution test was run in USP Apparatus 2 with water at pH 5.5 (unbuffered) at 37°C comparing the solid dispersion of this invention (Example 2) with unformulated (jet-milled) SR48692. The solid dispersions provide enormous dissolution enhancement with respect to pure drug and low impurity levels (0.4%).

As for SR48692, the solubility result in data set [1] is “Inadequate”. The same substance came in with a dissolved in data set [2] below 10%.
